This is an account of results in patent US20150031674A1, “SERINE/THREONINE KINASE INHIBITORS” (GENENTECH, INC., priority 2013, published 2015).

human recombinant PAK1-KD protein, sequence (Q13153 270-521 limits assumed): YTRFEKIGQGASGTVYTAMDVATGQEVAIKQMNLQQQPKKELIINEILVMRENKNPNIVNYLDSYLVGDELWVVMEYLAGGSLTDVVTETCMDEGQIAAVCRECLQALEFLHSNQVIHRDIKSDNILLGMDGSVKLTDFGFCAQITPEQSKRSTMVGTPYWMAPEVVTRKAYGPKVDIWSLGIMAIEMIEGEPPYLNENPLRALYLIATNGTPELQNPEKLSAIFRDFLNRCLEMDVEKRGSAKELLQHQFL

This assay addresses human recombinant PAK1-KD protein (Homo sapiens, UniProt Q13153). The experiment in a line: PAK1-KD (Kinase Domain) IC50 Zlyte Assay (FRET peptide substrate phosphorylation). The conditions noted are these: Z'-LYTE, Biological Example 1.
Text: PAK1-KD (Kinase Domain) IC50 Zlyte Assay Protocol
Activity of human recombinant PAK1-KD protein may be assessed in vitro by assay of the phosphorylation of a FRET peptide substrate. Catalytically active human recombinant PAK1-KD protein is obtained by purification from Tini cells infected with a human PAK1-KD recombinant baculovirus expression vector.
The activity/inhibition of PAK1-KD was estimated by measuring the phosphorylation of a FRET peptide substrate (Ser/Thr19) labeled with Coumarin and Fluorescein using Z′-LYTE™ assay (Invitrogen). The peptide substrate is a consensus sequence ([sequence]) based on various PAK substrates reported in the scientific literature. […] Incubations were carried out at 22° C. in black polypropylene 384-well plates (Corning Costar).
Consider `Cc1cncc(-c2ccc(-c3cc4cnc(NC5COC5)nc4n(CCCCO)c3=O)c(Cl)c2)n1` [Example I-50, 6-[2-Chloro-4-(6-methylpyrazin-2-yl)phenyl]-8-(4-hydroxybutyl)-2-(oxetan-3-ylamino)pyrido[2,3-d]pyrimidin-7-one], for which the inhibitory constant (Ki) – broadly, the dissociation constant of the complex between target and ligand, obtained from inhibition or displacement – was determined as 45.6 nM. As for `CCNc1ncc2cc(-c3ccc(-c4cncc(C)n4)cc3Cl)c(=O)n(CCC3CCNC(=O)C3)c2n1` (stereo not shown) [Example I-53, 6-[2-chloro-4-(6-methylpyrazin-2-yl)phenyl]-2-(ethylamino)-8-[2-(2-oxo-4-piperidyl)ethyl]pyrido[2,3-d]pyrimidin-7-one], the inhibition constant Ki turned out to be 96.2 nM. On to `CCNc1ncc2cc(-c3ccc(-c4cncc(C)n4)cc3Cl)c(=O)n(CC3(O)CCNCC3)c2n1` [Example I-54, 6-(2-Chloro-4-(6-methylpyrazin-2-yl)phenyl)-2-(ethylamino)-8-((4-hydroxypiperidin-4-yl)methyl)pyrido[2,3-d]pyrimidin-7(8H)-one], for which the inhibition constant Ki was 107 nM. Turning to `Cc1cncc(-c2ccc(-c3cc4cnc(NC5COC5)nc4n(CCCC(N)=O)c3=O)c(Cl)c2)n1` [Example I-55, 4-[6-[2-Chloro-4-(6-methylpyrazin-2-yl)phenyl]-2-(oxetan-3-ylamino)-7-oxo-pyrido[2,3-d]pyrimidin-8-yl]butanamide], the inhibitory constant (Ki) was 29.8 nM. Turning to `CCNc1ncc2cc(-c3ccc(-c4cncc(C)n4)cc3Cl)c(=O)n(CCC3CCNC3)c2n1` (stereo not shown) [Example I-57, 6-(2-Chloro-4-(6-methylpyrazin-2-yl)phenyl)-2-(ethylamino)-8-(2-(pyrrolidin-3-yl)ethyl)pyrido[2,3-d]pyrimidin-7(8H)-one], the Ki stood at 4.1 nM.

For the compound `CCNc1ncc2cc(-c3ccc(-c4cncc(C)n4)cc3Cl)c(=O)n(C3COC4(CNC4)C3)c2n1` (stereo not shown) [Example I-58, 6-(2-Chloro-4-(6-methylpyrazin-2-yl)phenyl)-2-(ethylamino)-8-(5-oxa-2-azaspiro[3.4]octan-7-yl)pyrido[2,3-d]pyrimidin-7(8H)-one], the inhibitory constant (Ki) was determined as 71.1 nM. On to `CCNc1ncc2cc(-c3ccc(-c4cncc(C)n4)cc3Cl)c(=O)n(C3COC4(CCNCC4)C3)c2n1` (stereo not shown) [Example I-59, 6-(2-Chloro-4-(6-methylpyrazin-2-yl)phenyl)-2-(ethylamino)-8-(1-oxa-8-azaspiro[4.5]decan-3-yl)pyrido[2,3-d]pyrimidin-7(8H)-one], for which the inhibition constant Ki worked out at 24.4 nM. On to `Cc1cccc(-c2ccc(-c3cc4cnc(NC(C)C)nc4n(CCOCCN)c3=O)c(Cl)c2)n1` [Example I-60], for which the Ki is 1.1 nM. Turning to `Cc1cccc(-c2ccc(-c3cc4cnc(NC5COC5)nc4n(CCOCCN)c3=O)c(Cl)c2)n1` [Example I-63, 8-[2-(2-Aminoethoxy)ethyl]-6-[2-chloro-4-(6-methyl-2-pyridyl)phenyl]-2-(oxetan-3-ylamino)pyrido[2,3-d]pyrimidin-7-one], the Ki came out at 0.3 nM. As for `CCNc1ncc2cc(-c3ccc(-c4cncc(C)n4)cc3Cl)c(=O)n(CC[C@@H]3[C@H]4CNC[C@@H]34)c2n1` [Example I-65, 8-(2-((1R,5S,6s)-3-Azabicyclo[3.1.0]hexan-6-yl)ethyl)-6-(2-chloro-4-(6-methylpyrazin-2-yl)phenyl)-2-(ethylamino)pyrido[2,3-d]pyrimidin-7(8H)-one], the Ki was 14.5 nM. As for `CCNc1ncc2cc(-c3ccc(-c4cccc(C)n4)cc3Cl)c(=O)n(CCN3CCNCC3)c2n1` [Example I-66, 6-(2-Chloro-4-(6-methylpyridin-2-yl)phenyl)-2-(ethylamino)-8-(2-(piperazin-1-yl)ethyl)pyrido[2,3-d]pyrimidin-7(8H)-one], the Ki was 0.9 nM. As to `Cc1cncc(-c2ccc(-c3cc4cnc(NC5COC5)nc4n(CCOCCO)c3=O)c(Cl)c2)n1` [Example I-67, 6-[2-Chloro-4-(6-methylpyrazin-2-yl)phenyl]-8-[2-(2-hydroxyethoxy)ethyl]-2-(oxetan-3-ylamino)pyrido[2,3-d]pyrimidin-7-one], the Ki was found to be 77.8 nM. Consider `Cc1cccc(-c2ccc(-c3cc4cnc(NC(C)C)nc4n(CCN4CCNCC4)c3=O)c(Cl)c2)n1` [Example I-68, 6-(2-Chloro-4-(6-methylpyridin-2-yl)phenyl)-2-(isopropylamino)-8-(2-(piperazin-1-yl)ethyl)pyrido[2,3-d]pyrimidin-7(8H)-one], for which the Ki was found to be 1.6 nM. For `CCNc1ncc2cc(-c3ccc(-c4cncc(C)n4)cc3Cl)c(=O)n(CCC(N)=O)c2n1` [Example I-69, 3-[6-[2-chloro-4-(6-methylpyrazin-2-yl)phenyl]-2-(ethylamino)-7-oxo-pyrido[2,3-d]pyrimidin-8-yl]propanamide], the inhibition constant (Ki) was 103 nM. Consider `Cc1cccc(-c2ccc(-c3cc4cnc(NC5COC5)nc4n(CCCC(N)=O)c3=O)c(C)c2)n1` [Example I-71, 4-[6-[2-Methyl-4-(6-methyl-2-pyridyl)phenyl]-2-(oxetan-3-ylamino)-7-oxo-pyrido[2,3-d]pyrimidin-8-yl]butanamide], for which the Ki turned out to be 11.3 nM. For `Cc1cccc(-c2ccc(-c3cc4cnc(N)nc4n(CCCN)c3=O)c(C)c2)n1` [Example I-72, 2-Amino-8-(3-aminopropyl)-6-[2-methyl-4-(6-methyl-2-pyridyl)phenyl]pyrido[2,3-d]pyrimidin-7-one], the Ki came to 21.1 nM. As for `CCNc1ncc2cc(-c3ccc(-c4cccc(C)n4)cc3C)c(=O)n(CCCCO)c2n1` [Example I-73, 2-(Ethylamino)-8-(4-hydroxybutyl)-6-[2-methyl-4-(6-methyl-2-pyridyl)phenyl]pyrido[2,3-d]pyrimidin-7-one], the inhibition constant (Ki) worked out at 18.9 nM. Consider `CCNc1ncc2cc(-c3ccc(-c4cccc(C)n4)cc3C)c(=O)n(CCCC(=O)NC)c2n1` [Example I-74, 4-[2-(Ethylamino)-6-[2-methyl-4-(6-methyl-2-pyridyl)phenyl]-7-oxo-pyrido[2,3-d]pyrimidin-8-yl]-N-methyl-butanamide], for which the inhibitory constant (Ki) is 15.5 nM. For the compound `CCNc1ncc2cc(-c3ccc(-c4cccc(C)n4)cc3C)c(=O)n(CCOCCN)c2n1` [Example I-76, 8-[2-(2-Aminoethoxy)ethyl]-2-(ethylamino)-6-[2-methyl-4-(6-methyl-2-pyridyl)phenyl]pyrido[2,3-d]pyrimidin-7-one], the Ki stood at 3.3 nM. `CCNc1ncc2cc(-c3ccc(-c4cc(C)cnn4)cc3Cl)c(=O)n(C[C@H]3CC[C@H](N)CC3)c2n1` [Example I-77, 8-(((1R,4R)-4-Aminocyclohexyl)methyl)-6-(2-chloro-4-(5-methylpyridazin-3-yl)phenyl)-2-(ethylamino)pyrido[2,3-d]pyrimidin-7(8H)-one]: the inhibition constant (Ki) was found to be 30.7 nM. As for `Cc1cccc(-c2ccc(-c3cc4cnc(NC(C)C)nc4n(CC(=O)N4CCNCC4)c3=O)c(C)c2)n1` [Example I-78, 2-(Isopropylamino)-6-(2-methyl-4-(6-methylpyridin-2-yl)phenyl)-8-(2-oxo-2-(piperazin-1-yl)ethyl)pyrido[2,3-d]pyrimidin-7(8H)-one], the Ki worked out at 16 nM. For `CNc1ncc2cc(-c3ccc(-c4cncc(C)n4)cc3Cl)c(=O)n(CC[C@@H](O)CO)c2n1` [Example I-80, 6-(2-Chloro-4-(6-methylpyrazin-2-yl)phenyl)-8-(3,4-dihydroxybutyl)-2-(methylamino)pyrido[2,3-d]pyrimidin-7(8H)-one], the Ki turned out to be 104 nM. With `Cc1cccc(-c2ccc(-c3cc4cnc(NC5COC5)nc4n(CCCCO)c3=O)c(C)c2)n1` [Example I-81, 8-(4-Hydroxybutyl)-6-[2-methyl-4-(6-methyl-2-pyridyl)phenyl]-2-(oxetan-3-ylamino)pyrido[2,3-d]pyrimidin-7-one], the inhibitory constant (Ki) turned out to be 6.5 nM. In the case of `CCNc1ncc2cc(-c3ccc(-c4cncc(C)n4)cc3Cl)c(=O)n(C[C@H]3[C@@H]4CNC[C@@H]43)c2n1` [Example I-82, 8-((1R,5S,6R)-3-Azabicyclo[3.1.0]hexan-6-ylmethyl)-6-(2-chloro-4-(6-methylpyrazin-2-yl)phenyl)-2-(ethylamino)pyrido[2,3-d]pyrimidin-7(8H)-one] it was 9.6 nM; in that of `CCNc1ncc2cc(-c3ccc(-c4cncc(C)n4)cc3Cl)c(=O)n(CC[C@H](O)CO)c2n1` [Example I-83, (S)-6-(2-Chloro-4-(6-methylpyrazin-2-yl)phenyl)-8-(3,4-dihydroxybutyl)-2-(ethylamino)pyrido[2,3-d]pyrimidin-7(8H)-one], 107 nM. `CNc1ncc2cc(-c3ccc(-c4cncc(C)n4)cc3Cl)c(=O)n(CC(=O)N3CCNCC3)c2n1` [Example I-84, 6-(2-Chloro-4-(6-methylpyrazin-2-yl)phenyl)-2-(methylamino)-8-(2-oxo-2-(piperazin-1-yl)ethyl)pyrido[2,3-d]pyrimidin-7(8H)-one]: the inhibition constant (Ki) is 59.2 nM.

For `CNc1ncc2cc(-c3ccc(-c4cncc(C)n4)cc3Cl)c(=O)n(CC(=O)NCCO)c2n1` [Example I-85, 2-[6-[2-Chloro-4-(6-methylpyrazin-2-yl)phenyl]-2-(methylamino)-7-oxo-pyrido[2,3-d]pyrimidin-8-yl]-N-(2-hydroxyethyl)acetamide], the inhibition constant (Ki) turned out to be 92.9 nM. As for `CNc1ncc2cc(-c3ccc(-c4cncc(C)n4)cc3Cl)c(=O)n(CC(=O)N(C)C)c2n1` [Example I-86, 2-[6-[2-Chloro-4-(6-methylpyrazin-2-yl)phenyl]-2-(methylamino)-7-oxo-pyrido[2,3-d]pyrimidin-8-yl]-N,N-dimethyl-acetamide], the figure is 123 nM. For the compound `CNC(=O)CCCn1c(=O)c(-c2ccc(-c3cccc(C)n3)cc2C)cc2cnc(NC3COC3)nc21` [Example I-87, N-methyl-4-[6-[2-methyl-4-(6-methyl-2-pyridyl)phenyl]-2-(oxetan-3-ylamino)-7-oxo-pyrido[2,3-d]pyrimidin-8-yl]butanamide], the inhibitory constant (Ki) was determined as 30.5 nM.

In the case of `Cc1cncc(-c2ccc(-c3cc4cnc(N)nc4n(CCCCCN)c3=O)c(Cl)c2)n1` [Example I-88, 2-Amino-8-(5-aminopentyl)-6-[2-chloro-4-(6-methylpyrazin-2-yl)phenyl]pyrido[2,3-d]pyrimidin-7-one], the inhibitory constant (Ki) amounted to 313 nM. With `CCNc1ncc2cc(-c3ccc(-c4cncc(C)n4)cc3Cl)c(=O)n(CCN3CCNCC3=O)c2n1` [Example I-90, 6-[2-Chloro-4-(6-methylpyrazin-2-yl)phenyl]-2-(ethylamino)-8-[2-(2-oxopiperazin-1-yl)ethyl]pyrido[2,3-d]pyrimidin-7-one], the Ki was 322 nM.
